Source: ChEMBL document CHEMBL3822364, “Synthesis, characterization and antimicrobial activity of novel Schiff base tethered boronate esters of 1,2-O-isopropylidene-α-d-xylofuranose” (2016)
In brackets after ≈: the same amount, converted by molar mass.

What was measured:
[1] = tested on: Staphylococcus aureus; assay: Antibacterial activity against Staphylococcus aureus MTCC 3160 assessed as zone of inhibition at 100 ug/well measured after 24 hrs by agar well diffusion method; type: functional; conditions: MTCC 3160, 24 h, read-out: DIZ
[2] = tested on: Klebsiella pneumoniae; assay: Antibacterial activity against Klebsiella pneumoniae MTCC 3384 assessed as zone of inhibition at 100 ug/well measured after 24 hrs by agar well diffusion method; type: functional; conditions: MTCC 3384, 24 h, read-out: DIZ
[3] = tested on: Micrococcus luteus; assay: Antibacterial activity against Micrococcus luteus MTCC 106 assessed as zone of inhibition at 100 ug/well measured after 24 hrs by agar well diffusion method; type: functional; conditions: MTCC 106, 24 h, read-out: DIZ
[4] = tested on: Salmonella typhi; assay: Antibacterial activity against Salmonella typhi measured after 24 hrs by NCCL protocol based broth dilution method; type: functional, Salmonella enterica subsp. enterica serovar Typhi; conditions: Salmonella enterica
[5] = tested on: Streptococcus mutans; assay: Antibacterial activity against Streptococcus mutans MTCC 497 assessed as zone of inhibition at 100 ug/well measured after 24 hrs by agar well diffusion method; type: functional; conditions: MTCC 497, 24 h, read-out: DIZ
[6] = tested on: Aspergillus fumigatus; assay: Antifungal activity against Aspergillus fumigatus MTCC 343 measured after 48 hrs by NCCL protocol based broth dilution method; type: functional; conditions: MTCC 343, 48 h
[7] = tested on: Klebsiella pneumoniae; assay: Antibacterial activity against Klebsiella pneumoniae MTCC 3384 measured after 24 hrs by NCCL protocol based broth dilution method; type: functional; conditions: MTCC 3384, 24 h
[8] = tested on: Candida albicans; assay: Antifungal activity against Candida albicans MTCC 3017 measured after 48 hrs by NCCL protocol based broth dilution method; type: functional; conditions: MTCC 3017, 48 h
[9] = tested on: Salmonella paratyphi; assay: Antibacterial activity against Salmonella paratyphi measured after 24 hrs by NCCL protocol based broth dilution method; type: functional, Salmonella enterica subsp. enterica serovar Paratyphi A; conditions: Salmonella enterica
[10] = tested on: Aspergillus fumigatus; assay: Antifungal activity against Aspergillus fumigatus MTCC 343 assessed as zone of inhibition at 100 ug/well measured after 48 hrs by agar well diffusion method; type: functional; conditions: MTCC 343, 48 h, read-out: DIZ
[11] = tested on: Candida albicans; assay: Antifungal activity against Candida albicans MTCC 3017 assessed as zone of inhibition at 100 ug/well measured after 48 hrs by agar well diffusion method; type: functional; conditions: MTCC 3017, 48 h, read-out: DIZ
[12] = tested on: Salmonella typhi; assay: Antibacterial activity against Salmonella typhi assessed as zone of inhibition at 100 ug/well measured after 24 hrs by agar well diffusion method; type: functional, Salmonella enterica subsp. enterica serovar Typhi; conditions: Salmonella enterica, read-out: DIZ
[13] = tested on: Salmonella paratyphi; assay: Antibacterial activity against Salmonella paratyphi assessed as zone of inhibition at 100 ug/well measured after 24 hrs by agar well diffusion method; type: functional, Salmonella enterica subsp. enterica serovar Paratyphi A; conditions: Salmonella enterica, read-out: DIZ
[14] = tested on: Micrococcus luteus; assay: Antibacterial activity against Micrococcus luteus MTCC 106 measured after 24 hrs by NCCL protocol based broth dilution method; type: functional; conditions: MTCC 106, 24 h
[15] = tested on: Streptococcus mutans; assay: Antibacterial activity against Streptococcus mutans MTCC 497 measured after 24 hrs by NCCL protocol based broth dilution method; type: functional; conditions: MTCC 497, 24 h
[16] = tested on: Staphylococcus aureus; assay: Antibacterial activity against Staphylococcus aureus MTCC 3160 measured after 24 hrs by NCCL protocol based broth dilution method; type: functional; conditions: MTCC 3160, 24 h

Compound | zone of inhibition at 100 µg/disc [1] [mm] | zone of inhibition at 100 µg/disc [2] [mm] | zone of inhibition at 100 µg/disc [3] [mm] | MIC [4] [µg/mL] | zone of inhibition at 100 µg/disc [5] [mm] | MIC [6] [µg/mL] | MIC [7] [µg/mL] | MIC [8] [µg/mL] | MIC [9] [µg/mL] | zone of inhibition at 100 µg/disc [10] [mm] | zone of inhibition at 100 µg/disc [11] [mm] | zone of inhibition at 100 µg/disc [12] [mm] | zone of inhibition at 100 µg/disc [13] [mm] | MIC [14] [µg/mL] | MIC [15] [µg/mL] | MIC [16] [µg/mL]
CC1(C)O[C@H]2O[C@@H]3COB(c4ccccc4F)O[C@@H]3[C@H]2O1 | 11 | 12 | 8 | 250 (≈ 850 µM) | 12 | 500 (≈ 1700 µM) | 250 (≈ 850 µM) | 500 (≈ 1700 µM) | 125 (≈ 425 µM) | 9 | 11 | 11 | 9 | 250 (≈ 850 µM) | 125 (≈ 425 µM) | 125 (≈ 425 µM)
CC1(C)O[C@H]2O[C@@H]3COB(c4cccc(C=O)c4)O[C@@H]3[C@H]2O1 | 15 | 19 | 12 | 62.5 (≈ 206 µM) | 22 | 500 (≈ 1640 µM) | 62.5 (≈ 206 µM) | 250 (≈ 822 µM) | 62.5 (≈ 206 µM) | 0 | 11 | 18 | 18 | 250 (≈ 822 µM) | 62.5 (≈ 206 µM) | 250 (≈ 822 µM)
COc1ccc(/N=C/c2ccc(B3OC[C@H]4O[C@@H]5OC(C)(C)O[C@@H]5[C@H]4O3)cc2)cc1 | 11 | 18 | 11 | 125 (≈ 305 µM) | 12 | 500 (≈ 1220 µM) | 125 (≈ 305 µM) | 125 (≈ 305 µM) | 250 (≈ 611 µM) | 0 | 17 | 19 | 13 | 250 (≈ 611 µM) | 250 (≈ 611 µM) | 500 (≈ 1220 µM)
OB(O)c1ccc(/C=N/c2ccc(F)cc2)cc1 | 9 | 0 | 0 | 500 (≈ 2060 µM) | 11 | 500 (≈ 2060 µM) | 500 (≈ 2060 µM) | 500 (≈ 2060 µM) | 500 (≈ 2060 µM) | 0 | 0 | 9 | 0 | 500 (≈ 2060 µM) | 250 (≈ 1030 µM) | 500 (≈ 2060 µM)
COc1ccc(/N=C/c2cccc(B3OC[C@H]4O[C@@H]5OC(C)(C)O[C@@H]5[C@H]4O3)c2)cc1 | 0 | 18 | 12 | 31.2 (≈ 76.4 µM) | 17 | 500 (≈ 1220 µM) | 62.5 (≈ 153 µM) | 125 (≈ 305 µM) | 62.5 (≈ 153 µM) | 0 | 16 | 25 | 21 | 250 (≈ 611 µM) | 125 (≈ 305 µM) | 500 (≈ 1220 µM)
CC1(C)O[C@H]2O[C@@H]3COB(c4cccc(/N=C/c5cc([N+](=O)[O-])ccc5O)c4)O[C@@H]3[C@H]2O1 | 21 | 18 | 25 | 15.6 (≈ 35.5 µM) | 23 | 62.5 (≈ 142 µM) | 62.5 (≈ 142 µM) | 31.2 (≈ 71 µM) | 31.2 (≈ 71 µM) | 22 | 23 | 28 | 21 | 15.6 (≈ 35.5 µM) | 31.2 (≈ 71 µM) | 31.2 (≈ 71 µM)
CC1(C)O[C@H]2O[C@@H]3COB(c4cccc(/C=N/c5ccc(F)cc5)c4)O[C@@H]3[C@H]2O1 | 20 | 16 | 11 | 31.2 (≈ 78.7 µM) | 18 | 250 (≈ 629 µM) | 62.5 (≈ 157 µM) | 62.5 (≈ 157 µM) | 31.2 (≈ 78.7 µM) | 0 | 19 | 24 | 21 | 125 (≈ 315 µM) | 62.5 (≈ 157 µM) | 31.2 (≈ 78.7 µM)
